From the Kinase Knowledgebase extract (Sharma et al. 2016)

What follows are molecules tested against MAPK14 (human) (UniProt Q16539) (assay: Inhibition of MAPK14 Kinase Activity).
MAPK14 (human), sequence (Q16539 whole entry, looked up): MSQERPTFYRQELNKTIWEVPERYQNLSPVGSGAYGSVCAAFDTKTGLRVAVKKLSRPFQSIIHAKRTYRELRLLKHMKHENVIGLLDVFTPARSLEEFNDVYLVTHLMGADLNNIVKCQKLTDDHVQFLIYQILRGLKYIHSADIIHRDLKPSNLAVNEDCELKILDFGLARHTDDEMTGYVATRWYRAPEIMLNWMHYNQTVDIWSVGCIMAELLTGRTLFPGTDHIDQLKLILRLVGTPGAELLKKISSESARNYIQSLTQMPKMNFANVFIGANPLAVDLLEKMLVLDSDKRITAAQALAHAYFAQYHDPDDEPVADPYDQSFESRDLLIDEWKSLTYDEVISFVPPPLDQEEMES

IC50, ≤ 10 µM:
Cc1ccc(CC2COC(=O)N(c3c(Cl)cccc3Cl)C2)cc1 (configuration not stated)
CC(=O)NCCNc1cc(Cl)c(N2CC(Cc3ccc(F)cc3F)CCC2=O)c(Cl)c1 (configuration not stated)
O=C(c1ccc(F)cc1F)C1CCC(=O)N(c2c(Cl)cccc2Cl)C1 (configuration not stated)
CNC1CC(Cl)C(N2CC(Sc3ccc(F)cc3F)CCC2=O)C(Cl)C1 (configuration not stated)
O=C1CCC(Cc2ccc(F)cc2F)CN1c1c(Cl)cnc(O)c1Cl (configuration not stated)
O=C1CCC(Oc2ccccc2)CN1C1C(Cl)CCCC1Cl (configuration not stated)
COc1ccc(SC2CCC(=O)N(c3c(Cl)cncc3Cl)C2)cc1 (configuration not stated)
Cc1cc(CCCCC(=O)O)cc(C)c1N1CC(Cc2ccc(F)cc2F)CCC1=O (configuration not stated)
O=C(Cc1ccccc1)Nc1ccc(Cl)c(N2CC(Cc3ccc(F)cc3F)CNC2=O)c1Cl (configuration not stated)
CC(=O)Nc1cc(Cl)c(N2CC(Sc3ccc(F)cc3F)CCC2=O)c(Cl)c1 (configuration not stated)
O=C1NCC(Cc2ccc(F)cc2F)CN1c1c(Cl)ccc(O)c1Cl (configuration not stated)
COc1ccc(OC2CCC(=O)N(c3c(Cl)ccnc3Cl)C2)cc1 (configuration not stated)
O=C1CCC(Sc2cc(F)cc(F)c2)CN1c1c(Cl)ccnc1Cl (configuration not stated)
O=C1CCC(Cc2cc(Cl)cc(Cl)c2)CN1c1c(Cl)csc1Cl (configuration not stated)
Cc1cc(CCCN(C)C)cc(C)c1N1C[C@@H](Cc2ccc(F)cc2F)C[C@@H](C)C1=O
O=C1SCC(Cc2ccc(Cl)cc2Cl)CN1c1c(Cl)cccc1Cl (configuration not stated)
CC(=O)N1CCC(Nc2cc(Cl)c(N3CC(Cc4ccc(F)cc4F)CCC3=O)c(Cl)c2)CC1 (configuration not stated)
CNc1ccc(Cl)c(N2CC(Cc3ccc(F)cc3F)COC2=O)c1Cl (configuration not stated)
Cc1ccc(CC2CN(C)C(=O)N(c3c(Cl)cccc3Cl)C2)cc1 (configuration not stated)
Cc1cc(C(=O)N2CCN(C)CC2)cc(C)c1N1CC(Cc2ccc(F)cc2F)CCC1=O (configuration not stated)
CN1CC(Cc2ccc(F)cc2F)CN(c2c(Cl)ccc(N)c2Cl)C1=O (configuration not stated)
O=C1CCC(Oc2ccc3ccccc3c2)CN1c1c(Cl)cncc1Cl (configuration not stated)
Cc1ccccc1CC1CSC(=O)N(c2c(Cl)cccc2Cl)C1 (configuration not stated)
O=C1CCC(Oc2ccccc2Cl)CN1c1c(Cl)cncc1Cl (configuration not stated)
O=C1CCC(Oc2ccc(F)cc2F)CN1c1c(Cl)cnc(CO)c1Cl (configuration not stated)
Nc1ccc(Cl)c(N2CC(Cc3ccc(F)cc3F)CCC2=O)c1 (configuration not stated)
COc1ccc(CC2CCC(=O)N(c3c(Cl)cncc3Cl)C2)cc1 (configuration not stated)
O=C1CCC(Sc2ccc(F)cc2F)CN1c1c(Cl)ccnc1Cl (configuration not stated)
COc1ccc(OC2CCC(=O)N(c3c(Cl)csc3Cl)C2)cc1 (configuration not stated)
O=C1CCC(Sc2cc(F)cc(F)c2)CN1C1C(Cl)CCCC1Cl (configuration not stated)
CN1CC(Cc2ccc(F)cc2)CN(c2c(Cl)cccc2Cl)C1=O (configuration not stated)
Cc1ccccc1CC1CCC(=O)N(C2C(Cl)CCCC2Cl)C1 (configuration not stated)
O=C(Cc1ccccc1)Nc1ncc(Cl)c(N2CC(Cc3ccc(F)cc3F)CCC2=O)c1Cl (configuration not stated)
O=C1OCC(Cc2ccc(F)cc2F)CN1c1c(Cl)ccc(CO)c1Cl (configuration not stated)
O=C1COC(Cc2ccc3ccccc3c2)CN1c1c(Cl)cccc1Cl (configuration not stated)
O=C1CCC(C(Cl)c2ccc(F)cc2F)CN1c1c(Cl)cccc1Cl (configuration not stated)
O=C1CCC(Oc2ccccc2Cl)CN1c1c(Cl)ccnc1Cl (configuration not stated)
O=C1CCC(Oc2ccc(Cl)cc2Cl)CN1c1c(Cl)ccnc1Cl (configuration not stated)
O=C(Cc1ccccc1)Nc1ncc(Cl)c(N2CC(Sc3ccc(F)cc3F)CCC2=O)c1Cl (configuration not stated)
Nc1ccc(Cl)c(N2CC(Oc3ccc(F)cc3F)CCC2=O)c1Cl (configuration not stated)
CCc1ccc(CC2CCC(=O)N(c3c(Cl)cccc3Cl)C2)cc1 (configuration not stated)
Cc1ccccc1CC1CCC(=O)N(c2c(Cl)csc2Cl)C1 (configuration not stated)
Cc1cc(C(=O)O)cc(C)c1N1C[C@@H](Cc2ccc(F)cc2F)C[C@@H](C)C1=O
CN(C)CCNc1cc(Cl)c(N2CC(Cc3ccc(F)cc3F)CCC2=O)c(Cl)c1 (configuration not stated)
O=C1CCC(Cc2ccc(OC(F)(F)F)cc2)CN1c1c(Cl)cccc1Cl (configuration not stated)
O=C1CCC(Cc2ccccc2)CN1c1c(Cl)csc1Cl (configuration not stated)
O=C1CCC(Sc2ccc(F)cc2F)CN1c1c(Cl)ccc(CO)c1Cl (configuration not stated)
O=C1SCC(Cc2ccc(F)cc2F)CN1c1c(Cl)cc(CO)cc1Cl (configuration not stated)
Cc1ccc(SC2CCC(=O)N(c3c(Cl)csc3Cl)C2)cc1 (configuration not stated)
Nc1ccc(Cl)c(N2CC(Cc3ccc(F)cc3F)CSC2=O)c1Cl (configuration not stated)
Nc1cc(Cl)c(N2CC(Oc3ccc(F)cc3F)CCC2=O)c(Cl)c1 (configuration not stated)
O=C1CCC(Oc2ccc(F)cc2F)CN1C1C(Cl)CC(CO)CC1Cl (configuration not stated)
CN1CC(Cc2ccc(F)cc2F)CN(c2c(Cl)cc(CO)cc2Cl)C1=O (configuration not stated)
O=C1CSC(Cc2cc(F)cc(F)c2)CN1c1c(Cl)cccc1Cl (configuration not stated)
O=C(Cc1ccccc1)Nc1ccc(Cl)c(N2CC(Oc3ccc(F)cc3F)CCC2=O)c1Cl (configuration not stated)
CC[C@@H]1C[C@@H](Cc2ccc(F)cc2F)CN(c2c(Cl)cccc2Cl)C1=O
O=C1CCC(Cc2ccc(F)cc2F)CN1c1c(Cl)cncc1Cl (configuration not stated)
O=C(CNc1cc(Cl)c(N2CC(Cc3ccc(F)cc3F)CCC2=O)c(Cl)c1)NOCc1ccccc1 (configuration not stated)
CNc1cc(Cl)c(N2CC(Cc3ccc(F)cc3F)SCC2=O)c(Cl)c1 (configuration not stated)
CC(=O)N(C)c1cc(Cl)c(N2CC(Cc3ccc(F)cc3F)CCC2=O)c(Cl)c1 (configuration not stated)
CN1CC(Cc2ccc(F)cc2F)CN(c2c(Cl)cc(N)cc2Cl)C1=O (configuration not stated)
NC(=O)CNc1cc(Cl)c(N2CC(Cc3ccc(F)cc3F)CCC2=O)c(Cl)c1 (configuration not stated)
O=C1SCC(Cc2ccccc2Cl)CN1c1c(Cl)cccc1Cl (configuration not stated)
O=C1OCC(Cc2ccccc2F)CN1c1c(Cl)cccc1Cl (configuration not stated)
Nc1ccc(Cl)c(N2CC(Cc3ccc(F)cc3F)COC2=O)c1Cl (configuration not stated)
C[C@@H]1C[C@H](Cc2ccc(F)cc2F)CN(c2c(Cl)cc([N+](=O)[O-])cc2Cl)C1=O
O=C1CCC(Cc2ccccc2F)CN1C1C(Cl)CCCC1Cl (configuration not stated)
CNc1cc(Cl)c(N2CC(Cc3ccc(F)cc3F)CN(C)C2=O)c(Cl)c1 (configuration not stated)
CC(=O)Nc1ncc(Cl)c(N2CC(Cc3ccc(F)cc3F)CCC2=O)c1Cl (configuration not stated)
Nc1ccc(Cl)c(N2CC(Sc3ccc(F)cc3F)CCC2=O)c1Cl (configuration not stated)
C[C@@H]1C[C@@H](Cc2ccc(F)cc2F)CN(c2c(Cl)cccc2Cl)C1=O
Cc1cc(C#CCCN2CCN(C)CC2)cc(C)c1N1CC(Cc2ccc(F)cc2F)CCC1=O (configuration not stated)
Cc1ccc(OC2CCC(=O)N(c3c(Cl)cccc3Cl)C2)c(C)c1 (configuration not stated)
O=C(NCc1ccccc1CC1CCC(=O)N(c2c(Cl)cccc2Cl)C1)Nc1ccccc1C(F)(F)F (configuration not stated)
CNc1cc(Cl)c(N2CC(Sc3ccc(F)cc3F)CCC2=O)c(Cl)c1 (configuration not stated)
Cc1cc(N)cc(C)c1N1CC(Cc2ccc(F)cc2F)CNC1=O (configuration not stated)
CC[C@H]1C[C@@H](Cc2ccc(F)cc2F)CN(c2c(Cl)cccc2Cl)C1=O
Cc1cccc(C)c1N1CC(Cc2ccccc2Br)CCC1=O (configuration not stated)
O=C1CCC(Cc2ccc(F)cc2F)CN1c1c(Cl)cc(NCCN2CCCCC2)cc1Cl (configuration not stated)
CNc1sc(Cl)c(N2CC(Cc3ccc(F)cc3F)CCC2=O)c1Cl (configuration not stated)
O=C1CCC(Oc2ccc3ccccc3c2)CN1c1c(Cl)ccnc1Cl (configuration not stated)
CNC1CC(Cl)C(N2CC(Oc3ccc(F)cc3F)CCC2=O)C(Cl)C1 (configuration not stated)
O=C1CCC(Oc2ccc(F)cc2F)CN1c1c(Cl)cncc1Cl (configuration not stated)
O=C1CCC(Sc2ccccc2Cl)CN1c1c(Cl)cccc1Cl (configuration not stated)
O=C1CCC(Cc2ccc(F)cc2F)CN1C1C(Cl)CCCC1Cl (configuration not stated)
Cc1cc(C)cc(CC2CCC(=O)N(C3C(Cl)CCCC3Cl)C2)c1 (configuration not stated)
Nc1cc(Cl)c(N2CC(Cc3ccc(F)cc3F)COC2=O)c(Cl)c1 (configuration not stated)
CC(C)(C)NC(=O)CNc1cc(Cl)c(N2CC(Cc3ccc(F)cc3F)CCC2=O)c(Cl)c1 (configuration not stated)
O=C1NCC(Cc2ccc(F)cc2F)CN1c1c(Cl)cc(CO)cc1Cl (configuration not stated)
O=C1CCC(Oc2ccc(Cl)cc2)CN1c1c(Cl)cncc1Cl (configuration not stated)
O=C1OCC(Cc2cc(F)cc(F)c2)CN1c1c(Cl)cccc1Cl (configuration not stated)
O=C(O)c1cc(Cl)c(N2CC(Cc3ccc(F)cc3F)CCC2=O)c(Cl)c1 (configuration not stated)
Cc1cccc(C)c1N1C[C@@H](N(C)S(=O)(=O)c2ccc(F)cc2F)CCC1=O
CC(C)(C)OC(=O)Nc1cc(Cl)c(N2CC(Cc3ccc(F)cc3F)CCC2=O)c(Cl)c1 (configuration not stated)
O=C(N[C@H]1C[C@H](Cc2ccc(F)cc2F)CN(c2c(Cl)cccc2Cl)C1=O)OCc1ccccc1
O=C1CCC(Cc2ccc(F)cc2F)(Cc2ccc(F)cc2F)CN1c1c(Cl)cccc1Cl
O=C1CCC(Sc2ccccc2)CN1c1c(Cl)cccc1Cl (configuration not stated)
